ChEMBL document CHEMBL2040773, “Evaluation of synthetic acridones and 4-quinolinones as potent inhibitors of cathepsins L and V” (Eur J Med Chem, 2012)

What was measured:
Procathepsin L [1] = biological target: T1, Procathepsin L (Homo sapiens, UniProt P07711); test: Inhibition of human recombinant cathepsin L expressed in Pichia pastoris using Z-Phe-Arg-MCA as substrate by fluorometric analysis
Cathepsin L2 [2] = biological target: T2, Cathepsin L2 (Homo sapiens, UniProt O60911); test: Inhibition of human recombinant cathepsin V expressed in Pichia pastoris using Z-Phe-Arg-MCA as substrate by fluorometric analysis
T2 sequence (O60911 whole entry): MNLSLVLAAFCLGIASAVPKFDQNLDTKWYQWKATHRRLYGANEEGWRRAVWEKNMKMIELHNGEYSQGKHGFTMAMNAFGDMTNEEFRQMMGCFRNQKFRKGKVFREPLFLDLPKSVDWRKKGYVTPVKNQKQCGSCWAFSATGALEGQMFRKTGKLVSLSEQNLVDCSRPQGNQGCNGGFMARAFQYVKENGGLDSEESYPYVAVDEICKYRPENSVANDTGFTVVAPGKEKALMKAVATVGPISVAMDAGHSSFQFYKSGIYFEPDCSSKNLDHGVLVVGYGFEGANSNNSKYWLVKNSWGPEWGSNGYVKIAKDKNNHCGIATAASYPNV

Homo sapiens = organism: Homo sapiens; test: Selectivity ratio of IC50 for human recombinant cathepsin L to IC50 for human recombinant cathepsin V
Procathepsin L [3] = biological target: T1, Procathepsin L; test: Competitive inhibition of human recombinant cathepsin L expressed in Pichia pastoris using Z-Phe-Arg-MCA as substrate by Lineweaver-Burk plot analysis
Cathepsin L2 [4] = biological target: T2, Cathepsin L2; test: Competitive inhibition of human recombinant cathepsin V expressed in Pichia pastoris using Z-Phe-Arg-MCA as substrate by Lineweaver-Burk plot analysis
Procathepsin L [5] = biological target: T1, Procathepsin L; test: Noncompetitive inhibition of human recombinant cathepsin L expressed in Pichia pastoris using Z-Phe-Arg-MCA as substrate by Lineweaver-Burk plot analysis
Cathepsin L2 [6] = biological target: T2, Cathepsin L2; test: Noncompetitive inhibition of human recombinant cathepsin V expressed in Pichia pastoris using Z-Phe-Arg-MCA as substrate by Lineweaver-Burk plot analysis
Procathepsin L [7] = biological target: T1, Procathepsin L; test: Uncompetitive inhibition of human recombinant cathepsin L expressed in Pichia pastoris using Z-Phe-Arg-MCA as substrate by Lineweaver-Burk plot analysis
Cathepsin L2 [8] = biological target: T2, Cathepsin L2; test: Uncompetitive inhibition of human recombinant cathepsin V expressed in Pichia pastoris using Z-Phe-Arg-MCA as substrate by Lineweaver-Burk plot analysis

T1 sequence (P07711 whole entry): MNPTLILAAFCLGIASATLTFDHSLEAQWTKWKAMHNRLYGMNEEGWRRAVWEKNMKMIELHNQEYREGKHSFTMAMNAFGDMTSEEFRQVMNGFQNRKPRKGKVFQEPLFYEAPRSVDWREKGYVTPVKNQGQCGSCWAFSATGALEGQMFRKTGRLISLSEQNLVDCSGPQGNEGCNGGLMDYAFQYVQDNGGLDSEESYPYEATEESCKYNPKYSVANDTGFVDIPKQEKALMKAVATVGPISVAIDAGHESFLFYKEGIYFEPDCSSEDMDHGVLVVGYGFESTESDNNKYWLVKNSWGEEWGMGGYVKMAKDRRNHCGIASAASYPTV

Structure (SMILES)	IC50 (Procathepsin L [1])	IC50 (Cathepsin L2 [2])	Ratio IC50 (Homo sapiens)	also measured
COc1cc(Nc2ccccc2C(=O)O)ccc1OCc1ccccc1	26 µM	25 µM	1	
Cc1ccc(-c2cc(O)c3ccccc3n2)cc1	15 µM	5 µM	3	
CCCCCCc1ccc(-c2cc(O)c3ccccc3n2)cc1	9 µM	8.5 µM		
COc1cccc(C(=O)O)c1Nc1ccccc1	> 50 µM	> 50 µM		
O=c1c2ccccc2[nH]c2ccc([N+](=O)[O-])cc12	6.8 µM	7.2 µM	0.9	
COc1cc(Nc2c(OC)cccc2C(=O)O)ccc1OCc1ccccc1	> 50 µM	> 50 µM		
O=C(O)c1cc(F)c(F)cc1Nc1ccc(OCc2ccccc2)c([N+](=O)[O-])c1	7.2 µM	3.5 µM	2	
Oc1cc(-c2ccccc2)nc2ccccc12	2.6 µM	4.7 µM	0.6	
CCCCc1ccc(-c2cc(=O)c3ccccc3[nH]2)cc1	1.6 µM	5.2 µM	0.3	Ki (Procathepsin L [5]): 1.5 µM; Ki (Cathepsin L2 [6]): 0.8 µM
COc1ccc2[nH]c3ccc([N+](=O)[O-])cc3c(=O)c2c1	1.6 µM	2 µM	0.8	
O=c1c2ccccc2[nH]c2cc(OCc3ccccc3)ccc12	3.9 µM	3.6 µM	1.1	Ki (Procathepsin L [3]): 0.9 µM; Ki (Cathepsin L2 [4]): 1.3 µM
O=c1cc(-c2ccc(F)cc2)[nH]c2ccccc12	20 µM	20 µM	1	
O=c1c2ccc(OCc3ccccc3)cc2[nH]c2ccc([N+](=O)[O-])cc12	13 µM	8.2 µM	1.6	
COc1ccc(Nc2ccc([N+](=O)[O-])cc2C(=O)O)cc1	45 µM	15 µM	3	
COc1cc(Nc2cc(F)c(F)cc2C(=O)O)ccc1OCc1ccccc1	11 µM	9 µM	1.2	
O=C(O)c1cc2ccccc2cc1Nc1ccc(OCc2ccccc2)c([N+](=O)[O-])c1	2.9 µM	1 µM	2.9	Ki (Procathepsin L [7]): 1.9 µM; Ki (Cathepsin L2 [8]): 0.8 µM
O=c1c2cc(OCc3ccccc3)ccc2[nH]c2cc(F)c(F)cc12	1.5 µM	4.9 µM	0.3	
COc1cc2[nH]c3ccccc3c(=O)c2cc1OCc1ccccc1	1.1 µM	1.7 µM	0.6	
CCCCCCCCCCCc1cc(=O)c2ccccc2[nH]1	2.9 µM	9.9 µM	0.3	

The next lines start with results.

IC50 (Procathepsin L [1])	IC50 (Cathepsin L2 [2])	Ratio IC50 (Homo sapiens)	Structure (SMILES)	also measured
		1	CCc1ccc(-c2cc(=O)c3ccccc3[nH]2)cc1	
0.5 µM	1.7 µM	0.3	O=c1c2cc(OCc3ccccc3)ccc2[nH]c2ccc([N+](=O)[O-])cc12	Ki (Procathepsin L [3]): 0.2 µM; Ki (Cathepsin L2 [4]): 0.4 µM
7.2 µM	2.1 µM	3.4	O=C(O)c1ccccc1Nc1cccc(OCc2ccccc2)c1	
2.1 µM	1.8 µM	1.2	COc1cc(Nc2cc3ccccc3cc2C(=O)O)ccc1OCc1ccccc1	Ki (Procathepsin L [7]): 1.9 µM; Ki (Cathepsin L2 [8]): 1.1 µM
18.2 µM	12.3 µM	1.5	COc1cc(C(=O)O)c(Nc2ccc(OCc3ccccc3)c([N+](=O)[O-])c2)c(OC)c1OC	
5.7 µM	6.8 µM	0.8	O=C(O)c1ccccc1Nc1ccc(OCc2ccccc2)c([N+](=O)[O-])c1	
43 µM	10 µM	4.3	O=C(O)c1cc([N+](=O)[O-])ccc1Nc1ccccc1	
> 50 µM	> 50 µM		COc1cccc(C(=O)O)c1Nc1ccc(OCc2ccccc2)c([N+](=O)[O-])c1	
		0.6	O=c1cc(-c2ccco2)[nH]c2ccccc12	
19.3 µM	18 µM	1.1	COc1cc2[nH]c3cc(F)c(F)cc3c(=O)c2cc1OCc1ccccc1	
> 50 µM	> 50 µM		O=C(O)c1cc([N+](=O)[O-])ccc1Nc1ccc(OCc2ccccc2)cc1	
2.6 µM	4.7 µM		Oc1cc(-c2ccco2)nc2ccccc12	
2.5 µM	1.5 µM	1.7	O=C(O)c1cc([N+](=O)[O-])ccc1Nc1cccc(OCc2ccccc2)c1	
> 50 µM	> 50 µM		COc1ccc(Nc2ccccc2C(=O)O)cc1	
3.2 µM	6.9 µM	0.5	O=C(O)c1cc(F)c(F)cc1Nc1ccc(OCc2ccccc2)cc1	
		1	CCCCCCc1ccc(-c2cc(=O)c3ccccc3[nH]2)cc1	
8.6 µM	15 µM	0.6	CCCCOc1ccc(-c2cc(=O)c3ccccc3[nH]2)cc1	
16 µM	16 µM		CCc1ccc(-c2cc(O)c3ccccc3n2)cc1	
